The source of these data is patent publication US4916231A, “Alkenyltetrazole derivatives” (Shionogi & Co., Ltd., priority 1988, dated 1990).

Structures are written as SMILES. Counter-ions that a name gives are not always drawn. Like-named read-outs stand apart in the source and are kept apart here.

For test [1], the system named is sodium arachidonate-induced pulmonary thromboembolic death in mice. The test can be described thus: Protective effects on sodium arachidonate-induced pulmonary thromboembolic death in mice. The format is in vivo, mice (DDY). Particulars: for ED50: Mus musculus, iv, 1 h, into tail vein, mortality at 1 hour, read-out: ED50 (95% confidence limit). The method, then:
The mice (DDY, 4 weeks old, male, weight 20 to 25 g) in a group of ten are used.
Pulmonary thromboembolic death was induced by injecting 99% solution of sodium arachidonate (Sigma) in physiological saline [100 mg/kg (100% pulmonary thromboembolic death was induced in this amount.)] into tail vein. In order to examine the duration time of the test compound, sodium arachidonate was administrated in 15 minutes and 60 minutes after an administration of a solution of the test compounds in physioligical saline into tail vein. The mortality at 1 hour was determined and ED50 was calculated by probit method.

The next test deals with Guinea Pig Platelet. The test can be described thus: Long Acting Inhibitory effect for Guinea Pig Platelet Aggregation (ex vivo), arachidonic acid-induced. It is filed as in vivo, guinea pig (Slc- Hartley). Particulars: for AA (100 μM)-Induced Platelet Aggregation (%): 0.5 mg/kg, mean ± S.E., 5 guinea pigs. The method, then: A solution of test compound in physiological saline was administered (dosage: 0.5 mg/kg, dosage volume: 2 ml/Kg) to a guinea pig (Slc- Hartley, male, 9 weeks old, weight 520 to 590 g).
Inhibitory effect for platelet aggregation was measured in 1, 3, and 6 hours after administration of the test compounds.
Under sodium pentobarbital anesthesia, blood was collected from the abdominal artery in such the ratio that 3.8% sodium citrate solution/blood was 1 volume/9 volume.
The blood centrifuged for 15 minutes at 180×g at 22° C. to give platelet rich plasma (PRP). The remaining blood was further centrifuged at 3,000 rpm for 10 minutes at 22° C. to give platelet-poor plasma (PPP).
The platelet aggregation test was performed according to Born's method [Born, G.V.R., Nature, 194, 927-929 (1962)], using an aggregometer (model AUTO RAM-61, Rika Denki Kogyo CO., Ltd.). 400 µl of PRP, whose platelets number was prepared to count 50-55×10^4 /μl, was placed in a measuring cuvette and set in the aggregometer. PRP was stirred for 1 minute (at 1,200 rpm) at 37° C. and preliminarily warmed. As an inducer for platelet aggregating, 100 µl of arachidonic acid (sodium salt, Sigma) was added and the platelet aggregation was monitored with an aggregometer in terms of the increase and decrease in light transmission.
Setting the light transmittance for PRP at 0% of platelet aggregating rate, and that for PPP at 100%, the maximum light transmittance for the sample, after the addition of the inducer for platelet aggregating, was regarded as the maximum platelet aggragation rate.
The inhibitory rate for aggregation (%) was calculated from the ratio of the maximum aggregation rate in the test-compound-added group to that in the control group (carrier-added group).

A further test concerns Rats Washed Platelet. Description: in vitro rat washed platelet aggregation test (collagen-induced). It is filed as cell-based, rat (Sprague-Dowley). The settings on record: 0.05 h, inducer collagen 4 μg/ml, 37° C., 3 minutes after inducer, read-out: 50% Inhibitory Concentration (IC50), Inhibition of Aggregation for Rats Washed Platelet. The method, then: From the abdominal artery of a male rat (Sprague-Dowley, 8 weeks old) was collected 10 ml of blood with a syringe containing 1.5 ml of ACD (85 mM of sodium citrate, 70 mM of citric acid, 110 mM of glucose) and 20 μg of prostaglandin E1. The blood is placed in a plastic test tube, shaken moderately turning and centrifuged for 10 minutes at 160×g to give platelet rich plasma (PRP). To the prepared PRP was added apyrase (25 μg/ml) and the mixture was layered on 40% bovine serum albumin. The resulting mixture is centrifuged at 1200×g for 25 minutes.
The platelet aggregation reaction was measured by an aggregometer (NKK HEMA TRACER 1 MODEL PAT-6A.6M, Niko bioscience). In a measuring cuvette was placed 245 μl of the washed platelet of which platelet number was adjusted to 5×10^5 /μl and set in the aggregometer. The washed platelet was stirred (1000 rpm) at 37° C. and 3.8 µl of 0.1M of CaCl2 was added thereto. One minute later, 0.5 µl of a solution of a test compound in dimethylsulfoxide was added and 2 minutes later, 1 µl of collagen (Collagen reagent Horm®, HORMON-CHEMIE Munchen GMBH, final concentrate 4 μg/ml) as an inducer for platelet aggregating was added. The platelet aggregation was monitored with an aggregometer in terms of the increase and decrease in transmittancy.

`O=S(=O)(N[C@H]1[C@H]2CC[C@H](C2)[C@@H]1C/C=C\CCCc1nnn[nH]1)c1ccccc1` (relative stereo) [Iaa-b, (1R*,2S*,3S*,4S*)-3-phenylsulfonylamino-2-[(2Z)-6-(5-tetrazolyl)hex-2-enyl]bicyclo[2.2.1]heptane]: the “inhibitory potency, 15 vs 60 minutes pretreatment” value in test [1] (15 minutes and 60 minutes pretreatment) is “did not show significantly different inhibitory potency”. Further, in test [1] (60 minutes pretreatment), the “inhibitory effect of 60 minutes pretreatment” value is listed as “rather stronger inhibitory effect”. Also, the median effective dose (ED50) in test [1] (pretreatment 15 min) came out at 1.8 mg/kg; in test [1] (pretreatment 60 min), 1.5 mg/kg. Further, the results for the “duration of action” value (in test [1] (conclusion of mouse test); in the test with Guinea Pig Platelet (conclusion of ex vivo test)) were “long-acting” and “long acting”, respectively. Moreover, the “AA (100 μM)-Induced Platelet Aggregation (%)” value in the test with Guinea Pig Platelet (0 hours after p.o. administration) was 89.7 ± 1.4%; with Guinea Pig Platelet (1 hour after p.o. administration, * p < 0.05), 2.5 ± 2.0%; in the test on Guinea Pig Platelet (3 hours after p.o. administration, * p < 0.05), 19.0 ± 18.0%; with Guinea Pig Platelet (6 hours after p.o. administration), 56.3 ± 20.4%. The “inhibition of arachidonic acid induced platelet aggregation” value with Guinea Pig Platelet (1 and 3 hours after administration) was “significantly inhibited”; in the test with Guinea Pig Platelet (6 hours after administration) it was “still observed”. Also, the IC50 in the test with Rats Washed Platelet was found to be 3 nM. For the compound `Cc1ccc(S(=O)(=O)N[C@H]2[C@H]3CC[C@H](C3)[C@@H]2C/C=C\CCCc2nn[nH]n2)cc1` (relative stereo) [Iab-b, Sodium salt of (1R*,2S*,3S*,4S*)-2-[(2Z)-6-(5-tetrazolyl)hex-2-enyl]-3-(4-tolylsulfonylamino)bicyclo[2.2.1]-hepatane], the IC50 in the test with Rats Washed Platelet turned out to be 2 nM. The same measure, in the same setting: in the case of `O=S(=O)(N[C@H]1[C@H]2CC[C@H](C2)[C@@H]1C/C=C\CCCc1nn[nH]n1)c1ccc(Br)cc1` (relative stereo) [Iac-b, (1R*,2S*,3S*,4S*)-3-(4-bromophenylsulfonylamino-2-[(2Z)-6-(5-tetrazolyl)hex-2-enyl]bicyclo[2.2.1]heptane] it was 2 nM; in that of `O=S(=O)(N[C@H]1[C@H]2CC[C@H](C2)[C@@H]1C/C=C\CCCc1nnn[nH]1)c1ccc(O)cc1` (relative stereo) [Iad-b, (1R*,2S*,3S*,4S*)-3-(4-hydroxyphenylsulfonylamino)-2-[(2Z)-6-(5-tetrazolyl)hex-2-enyl]bicyclo[2.2.1]heptane], 2 nM; in that of `COc1ccc(S(=O)(=O)N[C@H]2[C@H]3CC[C@H](C3)[C@@H]2C/C=C\CCCc2nnn[nH]2)cc1` (relative stereo) [Iae-b, (1R*,2S*,3S*,4S*)-3-(4-methoxyphenylsulfonylamino)-2-[(2Z)-6-(5-tetrazolyl)hex-2-enyl]bicyclo[2.2.1]heptane], 2 nM.

As for `O=S(=O)(N[C@@H]1[C@@H](C/C=C\CCCc2nnn[nH]2)[C@H]2CC[C@@H]1O2)c1ccccc1` (relative stereo) [Iba-b, (1R*,2R*,3R*,4S*)-3-phenylsulfonylamino-2-[(2Z)-6-(5-tetrazolyl)hex-2-enyl]-7-oxabicyclo[2.2.1]heptane], in the test with Rats Washed Platelet, the IC50 came out at 20 nM. Take `O=S(=O)(N[C@H]1[C@H](C/C=C\CCCc2nnn[nH]2)[C@H]2CC[C@@H]1O2)c1ccccc1` (relative stereo) [Ica-b, (1R*,2S*,3S*,4S*)-3-phenylsulfonylamino-2-[(2Z)-6-(5-tetrazolyl)hex-2-enyl]-7-oxabicyclo[2.2.1]heptane]: the IC50 in the test with Rats Washed Platelet was 10 nM. Still for that read-out and setting: the same measure for `O=S(=O)(N[C@H]1[C@H]2CC[C@H](C2)[C@@H]1C/C=C\CCCc1nnn[nH]1)c1ccccc1` [(+)-Iaa-b, (1R,2S,3S,4S)-3-phenylsulfonylamino-2-[(2Z)-6-(5-tetrazolyl)hex-2-enyl]bicyclo[2.2.1]heptane]: 2 nM; for `CC1(C)[C@H]2C[C@H](NS(=O)(=O)c3ccccc3)[C@@H](C/C=C\CCCc3nn[nH]n3)[C@@H]1C2` [Ida-b]: 3 nM. For `CC1(C)[C@H]2C[C@H](C/C=C\CCCc3nnn[nH]3)[C@@H](NS(=O)(=O)c3ccccc3)[C@@H]1C2` [Iea-b, (1R,2R,3S,5S)-2-phenylsulfonylamino-3-[(2Z)-6-(5-tetrazolyl)hex-2-enyl]-6,6-dimethylbicyclo[3.1.1]heptane], the IC50 in the test on Rats Washed Platelet was 20 nM. On the same count and under the same terms, the same measure for `Cc1ccc(S(=O)(=O)N[C@@H]2[C@@H](C/C=C\CCCc3nnn[nH]3)C[C@H]3C[C@@H]2C3(C)C)cc1` [Ieb-b, (1R,2R,3S,5S)-2-(p-tolylsulfonylamino)-3-[(2Z)-6-(5-tetrazolyl)hex-2-enyl]-6,6-dimethylbicyclo[3.1.1]-heptane]: 4 nM.

On to `CC1(C)[C@H]2C[C@H](C/C=C\CCCc3nnn[nH]3)[C@@H](NS(=O)(=O)c3ccc(Br)cc3)[C@@H]1C2` [Iec-b, (1R,2R,3S,5S)-2-[(4-bromophenyl)sulfonylamino]-3-[(2Z)-6-(5-tetrazolyl)hex-2-enyl]-6,6-dimethylbicyclo[3.1.1]heptane], for which, in the test on Rats Washed Platelet, the IC50 is 2 nM. The same measure, in the same setting: the same measure for `COc1ccc(S(=O)(=O)N[C@@H]2[C@@H](C/C=C\CCCc3nnn[nH]3)C[C@H]3C[C@@H]2C3(C)C)cc1` [Iee-b, (1R,2R,3S,5S)-2-[(4-methoxyphenyl)sulfonylamino]-3-[(2Z)-6-(5-tetrazolyl)hex-2-enyl]-6,6-dimethylbicyclo [3.1.1]heptane]: 5 nM; for `CC1(C)[C@H]2C[C@H](C/C=C\CCCc3nnn[nH]3)[C@@H](NS(=O)(=O)c3ccc(-c4ccccc4)cc3)[C@@H]1C2` [Ieh-b, (1R,2R,3S,5S)-2-[(4-biphenylyl)sulfonylamino]-3-[(2Z)-6-(5-tetrazolyl)hex-2-enyl]-6,6-dimethylbicyclo[3.1.1]heptane]: 10 nM.

As to `CC1(C)[C@H]2C[C@H](C/C=C\CCCc3nnn[nH]3)[C@@H](NS(=O)(=O)c3ccc4ccccc4c3)[C@@H]1C2` [Iei-b, (1R,2R,3S,5S)-2-[(2-naphthyl)sulfonylamino]-3-[(2Z)-6-(5-tetrazolyl)hex-2-enyl]-6,6-dimethylbicyclo[3.1.1]-heptane], in the test with Rats Washed Platelet, the IC50 worked out at 9 nM. As to `CC1(C)[C@H]2C[C@H](C/C=C\CCCc3nnn[nH]3)[C@@H](NS(=O)(=O)c3ccc(Cl)cc3)[C@@H]1C2` [Iej-b, (1R,2R,3S,5S)-2-[(4-chlorophenyl)sulfonylamino]-3-[(2Z)-6-(5-tetrazolyl)hex-2-enyl]-6,6-dimethylbicyclo [3.1.1]heptane], the IC50 with Rats Washed Platelet was found to be 7 nM.

Regarding `CC1(C)[C@H]2C[C@H](C/C=C\CCCc3nnn[nH]3)[C@@H](NS(=O)(=O)c3cccc(Cl)c3)[C@@H]1C2` [Iek-b, (1R,2R,3S,5S)-2-[(3-chlorophenyl)sulfonylamino]-3-[(2Z)-6-(5-tetrazolyl)hex-2-enyl]-6,6-dimethyl-bicyclo [3.1.1]heptane], the IC50 in the test on Rats Washed Platelet came out at 5 nM. Still for that read-out and setting: in the case of `CC1(C)[C@H]2C[C@H](C/C=C\CCCc3nnn[nH]3)[C@@H](NS(=O)(=O)c3ccccc3Cl)[C@@H]1C2` [Iel-b, (1R,2R,3S,5S)-2-[(2-chlorophenyl)sulfonylamino]-3-[(2Z)-6-(5-tetrazolyl)hex-2-enyl]-6,6-dimethylbicyclo [3.1.1]heptane] it was 20 nM.
